This note sets out measurements from article PMC8493801, “Exploring the Monoterpene Indole Alkaloid Scaffold for Reversing P-Glycoprotein-Mediated Multidrug Resistance in Cancer” (Pharmaceuticals, 2021).

Structures are written as SMILES.

The first data set deals with sensitive L5178Y mouse T-lymphoma cells (PAR). Briefly: MTT antiproliferative assay, sensitive cells. The following applies: 72 h, mean ± SD. The format is cell-based. The method, then: (§1) Non-cancer mouse embryonic fibroblasts (NIH/3T3) were also used.
(§2) L5178Y mouse T-lymphoma cells (ECACC catalog no. 87111908, US FDA, Silver Spring, MD, USA) were transfected with the pHa MDR1/A retrovirus as previously reported. The ABCB1 (P-gp) overexpressing cells were selected by culturing the infected cells with 60 ng/mL of colchicine (Sigma-Aldrich Chemie GmbH, Steinheim, Germany) to preserve the MDR phenotype. L5178Y (parental, PAR) mouse T-cell lymphoma cells and the human ABCB1-transfected subline were cultured in McCoy’s 5A supplemented with 10% heat-inactivated horse serum, 100 U/L L-glutamine, and 100 mg/L penicillin-streptomycin mixture, all obtained from Sigma-Aldrich. The mouse embryonic fibroblast (NIH 3T3) cell line was purchased from ATCC (CRL-1658) and was cultured in DMEM medium supplemented with 10% fetal bovine serum. These adherent cells were detached using 0.25% trypsin and 0.02% EDTA for 5 min at 37 °C. Before the antiproliferative assay using NIH 3T3 cell line, the cells were seeded in untreated 96-well flat bottomed microtiter plates, following a 4 h incubation period in a humidified atmosphere (5% CO2, 95% air) at 37 °C.
The assay was performed according to the previously applied experimental settings.
Take `CCC1CN(C)C2Cc3c([nH]c4ccccc34)C(=NN=Cc3ccc(Br)cc3)CC1C2C(=O)OC` (stereo not drawn) [Compound 8, 3-[(4″-bromobenzylidene)hydrazineylidene]dregamine]: the IC50 stood at 8.84 ± 0.76 µM.

`CCC1CN(C)C2Cc3c([nH]c4ccccc34)C(=NN=Cc3ccc(Cl)cc3)CC1C2C(=O)OC` (stereo not drawn) [Compound 9, 3-[(4″-chlorobenzylidene)hydrazineylidene]dregamine] came in with an IC50 of 14.5 ± 0.84 µM.

In turn, `CCC1CN(C)C2Cc3c([nH]c4ccccc34)C(=NN=Cc3ccc(C(F)(F)F)cc3)CC1C2C(=O)OC` (stereo not drawn) [Compound 10, 3-[(4″-(trifluoromethyl)benzylidene)hydrazineylidene]dregamine] yielded an IC50 of 20.7 ± 0.8 µM.

`CCC1CN(C)C2Cc3c([nH]c4ccccc34)C(=NN=Cc3ccc(OC(F)(F)F)cc3)CC1C2C(=O)OC` (stereo not drawn) [Compound 11, 3-[(4″-(trifluoromethoxy)benzylidene)hydrazineylidene]dregamine] gave an IC50 of 23.7 ± 0.64 µM.

Another data set deals with mouse embryonic fibroblasts (NIH/3T3). The data set can be described thus: MTT antiproliferative assay, non-cancer cells. The format is cell-based. Particulars: IC50 NIH/3T3 / IC50 MDR. The method, then:
as §1
In addition, the antiproliferative activity of the compounds was also evaluated on non-cancerous mouse embryonic fibroblast cells (NIH/3T3), whose values were compared with those of PAR and MDR cells by evaluation of the selective index (SI) values. […] The highest selective index values (SIC/A = 9.39; SIC/B = 10.79) were found for the derivative bearing the trimethoxyphenyl substituent (17).
as §2
Background: Formazan colour is commonly taken as a measure of viable cells.
With `CCC1CN(C)C2Cc3c([nH]c4ccccc34)C(=NN=Cc3ccc(Br)cc3)CC1C2C(=O)OC` (stereo not drawn) [Compound 8, 3-[(4″-bromobenzylidene)hydrazineylidene]dregamine], the “SI C/B (Selectivity Index)” value came to 1.56.

On to `CCC1CN(C)C2Cc3c([nH]c4ccccc34)C(=NN=Cc3ccc(Cl)cc3)CC1C2C(=O)OC` (stereo not drawn) [Compound 9, 3-[(4″-chlorobenzylidene)hydrazineylidene]dregamine], for which the “SI C/B (Selectivity Index)” value was 1.47.

`CCC1CN(C)C2Cc3c([nH]c4ccccc34)C(=NN=Cc3ccc(C(F)(F)F)cc3)CC1C2C(=O)OC` (stereo not drawn) [Compound 10, 3-[(4″-(trifluoromethyl)benzylidene)hydrazineylidene]dregamine]: the “SI C/B (Selectivity Index)” value amounted to 1.06.

On to `CCC1CN(C)C2Cc3c([nH]c4ccccc34)C(=NN=Cc3ccc(OC(F)(F)F)cc3)CC1C2C(=O)OC` (stereo not drawn) [Compound 11, 3-[(4″-(trifluoromethoxy)benzylidene)hydrazineylidene]dregamine], for which the “SI C/B (Selectivity Index)” value was found to be 1.60.

The data set is the same for the next values; noted with them: IC50 NIH/3T3 / IC50 PAR.
Take `CCC1CN(C)C2Cc3c([nH]c4ccccc34)C(=NN=Cc3ccc(Br)cc3)CC1C2C(=O)OC` (stereo not drawn) [Compound 8, 3-[(4″-bromobenzylidene)hydrazineylidene]dregamine]: the “SI C/A (Selectivity Index)” value is 1.32.

For the compound `CCC1CN(C)C2Cc3c([nH]c4ccccc34)C(=NN=Cc3ccc(Cl)cc3)CC1C2C(=O)OC` (stereo not drawn) [Compound 9, 3-[(4″-chlorobenzylidene)hydrazineylidene]dregamine], the “SI C/A (Selectivity Index)” value was determined as 0.67.

As for `CCC1CN(C)C2Cc3c([nH]c4ccccc34)C(=NN=Cc3ccc(C(F)(F)F)cc3)CC1C2C(=O)OC` (stereo not drawn) [Compound 10, 3-[(4″-(trifluoromethyl)benzylidene)hydrazineylidene]dregamine], the “SI C/A (Selectivity Index)” value was found to be 0.60.

`CCC1CN(C)C2Cc3c([nH]c4ccccc34)C(=NN=Cc3ccc(OC(F)(F)F)cc3)CC1C2C(=O)OC` (stereo not drawn) [Compound 11, 3-[(4″-(trifluoromethoxy)benzylidene)hydrazineylidene]dregamine]: the “SI C/A (Selectivity Index)” value worked out at 0.57.

The data set is the same for the next values; noted with them: NIH3T3; non-cancer mouse embryonic fibroblasts, MTT; read-out: IC50 NIH/3T3 (C).
As for `CCC1CN(C)C2Cc3c([nH]c4ccccc34)C(=NN=Cc3ccc(Br)cc3)CC1C2C(=O)OC` (stereo not drawn) [Compound 8, 3-[(4″-bromobenzylidene)hydrazineylidene]dregamine], the IC50 came out at 11.7 ± 2.07 µM.

Take `CCC1CN(C)C2Cc3c([nH]c4ccccc34)C(=NN=Cc3ccc(Cl)cc3)CC1C2C(=O)OC` (stereo not drawn) [Compound 9, 3-[(4″-chlorobenzylidene)hydrazineylidene]dregamine]: the IC50 turned out to be 9.67 ± 0.94 µM.

As to `CCC1CN(C)C2Cc3c([nH]c4ccccc34)C(=NN=Cc3ccc(C(F)(F)F)cc3)CC1C2C(=O)OC` (stereo not drawn) [Compound 10, 3-[(4″-(trifluoromethyl)benzylidene)hydrazineylidene]dregamine], the IC50 is 12.4 ± 1.58 µM.

In the case of `CCC1CN(C)C2Cc3c([nH]c4ccccc34)C(=NN=Cc3ccc(OC(F)(F)F)cc3)CC1C2C(=O)OC` (stereo not drawn) [Compound 11, 3-[(4″-(trifluoromethoxy)benzylidene)hydrazineylidene]dregamine], the IC50 was 13.5 ± 1.14 µM.

The test system of a further data set is human ABCB1-transfected L5178Y mouse lymphoma cells. Briefly: Checkerboard combination assay with doxorubicin. The format is cell-based. Further details: key to CI at ED50 (combination index): CI <1 synergy, =1 additive, >1 antagonism. Particulars: MDR cells. The protocol: The in vitro interactions between the compounds and the well-known antitumor drug and P-gp substrate, doxorubicin, were evaluated in a combination chemotherapy model on human ABCB1-transfected mouse T-lymphoma cells. The nature of drug–drug interactions was assessed by determination of the combination index (CI) using the Chou and Talalay method (Figure 1), and therefore evaluated as synergistic (CI < 1), additive (CI = 1), or antagonistic (CI > 1).
Doxorubicin (2 mg/mL, Teva Pharmaceuticals, Budapest, Hungary) was serially diluted horizontally in 100 µL as previously described, starting with 8.6 µM. The resistance modifier was subsequently diluted vertically in 50 µL; the starting concentration was determined based on the IC50. […] The checkerboard plates were kept for 72 h at 37 °C in a CO2 incubator, and at the end of the incubation period, the cell growth was determined by MTT staining method, as described earlier. Drug interactions were evaluated using Calcusyn software. Each dose–response curve (for individual agents as well as combinations) was fit to a linear model using the median effect equation in order to obtain the median effect value (corresponding to the IC50) and slope (m). The goodness-of-fit was assessed using the linear correlation coefficient, r, and only data from analysis with r > 0.90 were presented. The extent of interaction between drugs was expressed using the combination index, in which a CI value close to 1 indicates additivity, while a CI < 1 is defined as synergy and a CI > 1 as antagonism.
For `CCC1CN(C)C2Cc3c([nH]c4ccccc34)C(=NN=Cc3ccc(Br)cc3)CC1C2C(=O)OC` (stereo not drawn) [Compound 8, 3-[(4″-bromobenzylidene)hydrazineylidene]dregamine], the Interaction result was “Synergism”.

As for `CCC1CN(C)C2Cc3c([nH]c4ccccc34)C(=NN=Cc3ccc(Cl)cc3)CC1C2C(=O)OC` (stereo not drawn) [Compound 9, 3-[(4″-chlorobenzylidene)hydrazineylidene]dregamine], the Interaction entry was “Strong Synergism”.

Regarding `CCC1CN(C)C2Cc3c([nH]c4ccccc34)C(=NN=Cc3ccc(C(F)(F)F)cc3)CC1C2C(=O)OC` (stereo not drawn) [Compound 10, 3-[(4″-(trifluoromethyl)benzylidene)hydrazineylidene]dregamine], the Interaction result was “Strong Synergism”.

On to `CCC1CN(C)C2Cc3c([nH]c4ccccc34)C(=NN=Cc3ccc(OC(F)(F)F)cc3)CC1C2C(=O)OC` (stereo not drawn) [Compound 11, 3-[(4″-(trifluoromethoxy)benzylidene)hydrazineylidene]dregamine], for which the Interaction entry is “Synergism”.

Still in this data set, the particulars now being: best ratio, MDR cells.
Turning to `CCC1CN(C)C2Cc3c([nH]c4ccccc34)C(=NN=Cc3ccc(Br)cc3)CC1C2C(=O)OC` (stereo not drawn) [Compound 8, 3-[(4″-bromobenzylidene)hydrazineylidene]dregamine], the “CI at ED50 (combination index)” value is 0.451.

In the case of `CCC1CN(C)C2Cc3c([nH]c4ccccc34)C(=NN=Cc3ccc(Cl)cc3)CC1C2C(=O)OC` (stereo not drawn) [Compound 9, 3-[(4″-chlorobenzylidene)hydrazineylidene]dregamine], the “CI at ED50 (combination index)” value is recorded as 0.194.

As to `CCC1CN(C)C2Cc3c([nH]c4ccccc34)C(=NN=Cc3ccc(C(F)(F)F)cc3)CC1C2C(=O)OC` (stereo not drawn) [Compound 10, 3-[(4″-(trifluoromethyl)benzylidene)hydrazineylidene]dregamine], the “CI at ED50 (combination index)” value amounted to 0.272.

On to `CCC1CN(C)C2Cc3c([nH]c4ccccc34)C(=NN=Cc3ccc(OC(F)(F)F)cc3)CC1C2C(=O)OC` (stereo not drawn) [Compound 11, 3-[(4″-(trifluoromethoxy)benzylidene)hydrazineylidene]dregamine], for which the “CI at ED50 (combination index)” value is 0.601.

The subject of the next data set is human ABCB1-gene transfected L5178Y subline (MDR).
Test: not given
Conditions: not given
Take `CCC1CN(C)C2Cc3c([nH]c4ccccc34)C(=NN=Cc3ccc(Br)cc3)CC1C2C(=O)OC` (stereo not drawn) [Compound 8, 3-[(4″-bromobenzylidene)hydrazineylidene]dregamine]: the IC50 worked out at 7.47 ± 0.17 µM.

`CCC1CN(C)C2Cc3c([nH]c4ccccc34)C(=NN=Cc3ccc(Cl)cc3)CC1C2C(=O)OC` (stereo not drawn) [Compound 9, 3-[(4″-chlorobenzylidene)hydrazineylidene]dregamine] came in with an IC50 of 6.57 ± 0.12 µM.

As for `CCC1CN(C)C2Cc3c([nH]c4ccccc34)C(=NN=Cc3ccc(C(F)(F)F)cc3)CC1C2C(=O)OC` (stereo not drawn) [Compound 10, 3-[(4″-(trifluoromethyl)benzylidene)hydrazineylidene]dregamine], the IC50 was found to be 11.7 ± 0.67 µM.

Compound `CCC1CN(C)C2Cc3c([nH]c4ccccc34)C(=NN=Cc3ccc(OC(F)(F)F)cc3)CC1C2C(=O)OC` (stereo not drawn) [Compound 11, 3-[(4″-(trifluoromethoxy)benzylidene)hydrazineylidene]dregamine] came in with an IC50 of 8.4 ± 0.52 µM.

Staying with this data set, now noted: RR ≤ 0.5 means CS effect.
Take `CCC1CN(C)C2Cc3c([nH]c4ccccc34)C(=NN=Cc3ccc(Br)cc3)CC1C2C(=O)OC` (stereo not drawn) [Compound 8, 3-[(4″-bromobenzylidene)hydrazineylidene]dregamine]: the “RR (relative resistance ratio) = IC50MDR/IC50PAR” value was determined as 0.85.

With `CCC1CN(C)C2Cc3c([nH]c4ccccc34)C(=NN=Cc3ccc(C(F)(F)F)cc3)CC1C2C(=O)OC` (stereo not drawn) [Compound 10, 3-[(4″-(trifluoromethyl)benzylidene)hydrazineylidene]dregamine], the “RR (relative resistance ratio) = IC50MDR/IC50PAR” value is given as 0.56.
